{
  "source": "paper PMC3885398",
  "about": "“Evaluation of the Antitumor Effects of BPR1J-340, a Potent and Selective FLT3 Inhibitor, Alone or in Combination with an HDAC Inhibitor, Vorinostat, in AML Cancer” (PLoS ONE, 2014)",
  "key": {"[1]": {"target": "FLT4 (VEGFR3) (Homo sapiens, UniProt P35916)", "sequence (P35916 25-1363)": "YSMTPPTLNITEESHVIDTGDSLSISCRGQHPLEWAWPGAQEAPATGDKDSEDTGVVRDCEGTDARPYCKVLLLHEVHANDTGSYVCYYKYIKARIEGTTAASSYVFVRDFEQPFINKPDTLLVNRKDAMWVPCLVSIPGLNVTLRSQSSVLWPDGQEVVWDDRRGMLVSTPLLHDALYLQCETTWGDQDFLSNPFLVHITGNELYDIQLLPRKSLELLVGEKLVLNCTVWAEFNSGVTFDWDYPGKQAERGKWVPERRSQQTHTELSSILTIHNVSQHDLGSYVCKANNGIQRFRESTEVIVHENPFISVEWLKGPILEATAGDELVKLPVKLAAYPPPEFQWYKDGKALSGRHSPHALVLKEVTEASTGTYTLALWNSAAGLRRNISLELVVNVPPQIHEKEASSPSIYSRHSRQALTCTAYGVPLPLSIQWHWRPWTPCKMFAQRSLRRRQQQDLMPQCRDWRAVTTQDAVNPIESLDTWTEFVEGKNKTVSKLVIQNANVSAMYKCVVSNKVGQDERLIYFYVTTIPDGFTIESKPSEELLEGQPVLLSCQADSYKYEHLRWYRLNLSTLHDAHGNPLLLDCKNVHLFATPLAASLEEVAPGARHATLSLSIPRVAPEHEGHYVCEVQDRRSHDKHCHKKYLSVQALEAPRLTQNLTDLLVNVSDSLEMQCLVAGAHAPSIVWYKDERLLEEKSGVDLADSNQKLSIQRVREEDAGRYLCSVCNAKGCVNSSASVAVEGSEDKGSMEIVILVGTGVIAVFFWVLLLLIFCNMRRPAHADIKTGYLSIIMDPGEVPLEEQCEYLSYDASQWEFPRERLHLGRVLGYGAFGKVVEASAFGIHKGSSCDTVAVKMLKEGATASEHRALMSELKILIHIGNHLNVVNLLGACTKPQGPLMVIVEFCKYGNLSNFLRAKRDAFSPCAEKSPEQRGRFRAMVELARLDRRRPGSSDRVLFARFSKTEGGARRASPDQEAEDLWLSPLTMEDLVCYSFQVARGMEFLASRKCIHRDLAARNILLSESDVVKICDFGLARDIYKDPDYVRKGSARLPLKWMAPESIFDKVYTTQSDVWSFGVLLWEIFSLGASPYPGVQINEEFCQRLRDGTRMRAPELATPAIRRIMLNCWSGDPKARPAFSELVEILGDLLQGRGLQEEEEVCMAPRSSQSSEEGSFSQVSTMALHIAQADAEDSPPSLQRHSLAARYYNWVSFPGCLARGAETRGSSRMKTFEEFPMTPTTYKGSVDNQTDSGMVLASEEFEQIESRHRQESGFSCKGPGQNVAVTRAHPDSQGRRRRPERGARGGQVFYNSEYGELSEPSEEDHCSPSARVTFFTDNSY", "assay": "Invitrogen SelectScreen kinase profiling", "type": "biochemical", "parameters": "purchased Invitrogen SelectScreen", "details": "100 nM", "description": "(§1) The FLT3 and VEGFR1/2 Kinase-Glo kinase assays were performed as reported by our earlier study. The VEGFR3 activity analysis was conducted using the same protocol described in the VEGFR1/2 assay. The kinase inhibition profiling and inhibitory activity of FLT3-D835Y, CSF1R, and TRKA were determined by Invitrogen SelectScreen® kinase profiling service (Carlsbad, California, USA).\n(§2) BPR1J-340, a urea-substituted 3-phenyl-1H-5-pyrazolylamine-based compound, was designed through chemical modification of sulfonamide series of derivatives (BPR1J-097 series) by a structure-activity relationship (SAR) study (Fig. 1), [32]. For kinase inhibition specificity screening, BPR1J-340 was tested against 59 protein kinases covering the major oncogenic kinases of human protein kinome. […] In addition, BPR1J-340 inhibited TRKA, which is associated with the growth and metastasis of breast cancers, with an IC50 value of 8 nM. Given the high similarity of the ATP binding pockets of FLT3 and the Aurora kinases, the inhibitory activity toward Aurora A and Aurora B were measured. […] Taken together, BPRJ-340 is a selective kinase inhibitor with in vitro activity against FLT3, VEGFR2, VEGFR3 and TRKA receptor tyrosine kinases."}, "[2]": {"target": "KDR (VEGFR2) (Homo sapiens, UniProt P35968)", "sequence (P35968 20-1356)": "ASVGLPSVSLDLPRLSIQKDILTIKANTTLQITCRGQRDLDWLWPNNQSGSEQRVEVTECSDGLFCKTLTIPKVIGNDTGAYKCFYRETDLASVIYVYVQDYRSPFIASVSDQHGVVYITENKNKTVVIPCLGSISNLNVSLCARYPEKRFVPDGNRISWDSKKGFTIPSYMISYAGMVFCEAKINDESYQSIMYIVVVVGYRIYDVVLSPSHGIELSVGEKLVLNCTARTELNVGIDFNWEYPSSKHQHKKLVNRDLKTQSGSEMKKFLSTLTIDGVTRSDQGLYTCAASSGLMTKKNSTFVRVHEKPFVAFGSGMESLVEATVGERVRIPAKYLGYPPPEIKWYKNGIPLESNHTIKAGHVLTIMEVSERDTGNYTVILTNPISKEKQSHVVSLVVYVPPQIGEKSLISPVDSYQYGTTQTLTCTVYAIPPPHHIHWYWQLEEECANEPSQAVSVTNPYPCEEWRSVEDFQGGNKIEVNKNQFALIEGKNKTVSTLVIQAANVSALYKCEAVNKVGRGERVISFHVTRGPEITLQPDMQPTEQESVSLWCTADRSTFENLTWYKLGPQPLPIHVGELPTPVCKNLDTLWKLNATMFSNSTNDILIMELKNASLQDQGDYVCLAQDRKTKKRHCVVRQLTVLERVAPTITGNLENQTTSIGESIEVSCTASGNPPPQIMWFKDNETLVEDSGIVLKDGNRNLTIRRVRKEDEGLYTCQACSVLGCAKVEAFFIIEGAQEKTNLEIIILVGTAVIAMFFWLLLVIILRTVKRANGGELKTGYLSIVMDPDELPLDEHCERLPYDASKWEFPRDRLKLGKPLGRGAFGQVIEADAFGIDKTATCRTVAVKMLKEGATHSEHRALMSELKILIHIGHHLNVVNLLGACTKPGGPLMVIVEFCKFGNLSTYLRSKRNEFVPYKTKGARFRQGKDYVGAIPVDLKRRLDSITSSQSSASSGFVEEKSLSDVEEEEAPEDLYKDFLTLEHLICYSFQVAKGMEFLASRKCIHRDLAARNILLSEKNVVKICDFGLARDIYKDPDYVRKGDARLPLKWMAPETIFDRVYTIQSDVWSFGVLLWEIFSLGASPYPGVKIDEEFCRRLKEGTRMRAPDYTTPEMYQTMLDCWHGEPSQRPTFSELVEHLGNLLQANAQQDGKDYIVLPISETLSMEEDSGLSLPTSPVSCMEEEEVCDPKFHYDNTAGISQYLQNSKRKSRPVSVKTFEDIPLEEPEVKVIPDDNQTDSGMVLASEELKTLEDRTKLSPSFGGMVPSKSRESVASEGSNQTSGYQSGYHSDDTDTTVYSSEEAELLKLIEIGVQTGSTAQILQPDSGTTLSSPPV", "assay": "Invitrogen SelectScreen kinase profiling", "type": "biochemical", "parameters": "purchased Invitrogen SelectScreen", "details": "100 nM", "description": "as §1, §2"}, "[3]": {"test_system": "NCIH460", "assay": "Cell viability MTS assay", "type": "cell-based", "details": "Homo sapiens, NCI-H460; NCIH460, non-leukemia; read-out: Proliferation GI50", "description": "(§3) Cell viability was assessed with an MTS assay as carried out as the method described previously. Cells were seeded in 96-well plates at a density of 10,000 cells per well for 16 hours and then treated with vehicle or various concentrations of compound in medium. The change in viable cells was quantitated using the MTS method (Promega, Madison, WI, USA) according to the manufacturer's recommended protocol or by cell counting under a microscope. The GC50 value was defined as the amount of compound that caused a 50% reduction in cell viability in comparison with DMSO-treated (vehicle) control and was calculated using Prism version 4 software (Graph-Pad Software, Inc., San Diego, CA, USA). The data are presented as the mean ± S.D. from three independent experiments. Cell growth were measured by trypan blue dye exclusion method. Cells (1×10^4 mL^−1) were cultured in 12-well plates for 24 hours and then treated with different amounts of test compound and the same volumes of vehicle for 72 hours. The number of viable cells was counted by trypan blue dye staining using a hemocytometer at the indicated time point after drug treatment. The result was expressed as the mean ± S.D. from triplicate determinations."}, "[4]": {"test_system": "RT4", "assay": "Cell viability MTS assay", "type": "cell-based", "details": "Homo sapiens, RT-4; RT4, non-leukemia; read-out: Proliferation GI50", "description": "as §3"}, "[5]": {"test_system": "A431", "assay": "Cell viability MTS assay", "type": "cell-based", "details": "Homo sapiens, A-431; A431, non-leukemia; read-out: Proliferation GI50", "description": "as §3"}, "[6]": {"test_system": "HCT-116", "assay": "Cell viability MTS assay", "type": "cell-based", "details": "Homo sapiens; HCT-116, non-leukemia; read-out: Proliferation GI50", "description": "as §3"}, "[7]": {"test_system": "K562", "assay": "Cell viability MTS assay", "type": "cell-based", "details": "Homo sapiens; K562, leukemia; read-out: Proliferation GI50", "description": "as §3"}, "[8]": {"test_system": "H1650", "assay": "Cell viability MTS assay", "type": "cell-based", "details": "Homo sapiens, NCI-H1650; H1650, non-leukemia; read-out: Proliferation GI50", "description": "as §3"}, "[9]": {"test_system": "H2228", "assay": "Cell viability MTS assay", "type": "cell-based", "details": "Homo sapiens, NCI-H2228; H2228, non-leukemia; read-out: Proliferation GI50", "description": "as §3"}, "[10]": {"test_system": "Detroit551", "assay": "Cell viability MTS assay", "type": "cell-based", "details": "Homo sapiens, Detroit 551; Detroit551, non-leukemia; read-out: Proliferation GI50", "description": "as §3"}, "[11]": {"test_system": "Huh7", "assay": "Cell viability MTS assay", "type": "cell-based", "details": "Homo sapiens, Huh-7; Huh7, non-leukemia; read-out: Proliferation GI50", "description": "as §3"}, "[12]": {"test_system": "MiaPaCa-2", "assay": "Cell viability MTS assay", "type": "cell-based", "details": "Homo sapiens, MIA PaCa-2; MiaPaCa-2, non-leukemia; read-out: Proliferation GI50", "description": "as §3"}, "[13]": {"test_system": "H1975", "assay": "Cell viability MTS assay", "type": "cell-based", "details": "Homo sapiens, NCI-H1975; H1975, non-leukemia; read-out: Proliferation GI50", "description": "as §3"}, "[14]": {"test_system": "RS4;11", "assay": "Cell viability MTS assay", "type": "cell-based", "details": "Homo sapiens; RS4;11, leukemia, wild-type FLT3, FLT3-independent; read-out: Proliferation GI50 (GC50 in the text)", "description": "as §3"}, "[15]": {"test_system": "MCF-7", "assay": "Cell viability MTS assay", "type": "cell-based", "details": "Homo sapiens, MCF7; MCF-7, non-leukemia; read-out: Proliferation GI50", "description": "as §3"}, "[16]": {"target": "T1, FLT3 (wild-type, residues Y567-S993) (Homo sapiens, UniProt P36888)", "T1 construct": "FLT3 (residues Y567-S993); made in house", "T1 sequence (P36888 567-993)": "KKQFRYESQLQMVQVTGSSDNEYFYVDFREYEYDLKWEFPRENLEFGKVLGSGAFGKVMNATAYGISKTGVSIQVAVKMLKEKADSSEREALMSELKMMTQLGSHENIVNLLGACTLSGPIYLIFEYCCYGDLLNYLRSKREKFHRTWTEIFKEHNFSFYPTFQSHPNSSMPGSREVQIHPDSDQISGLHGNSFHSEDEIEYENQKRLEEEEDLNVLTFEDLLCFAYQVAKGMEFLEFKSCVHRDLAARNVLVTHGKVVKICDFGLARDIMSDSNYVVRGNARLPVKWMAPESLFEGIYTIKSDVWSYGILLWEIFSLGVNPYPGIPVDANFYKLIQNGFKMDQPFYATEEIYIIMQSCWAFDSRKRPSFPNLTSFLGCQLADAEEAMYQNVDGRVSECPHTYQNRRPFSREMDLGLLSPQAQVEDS", "assay": "FLT3 Kinase-Glo kinase assay", "type": "biochemical", "quoted_text": "All inhibitors were dissolved in dimethylsulfoxide (DMSO) at a stock concentration of 10 mM. […] The preparation of recombinant proteins, FLT3 (residues Y567-S993), VEGFR1 (residues R781-I1338) and VEGFR2 (residues V789-V1356), for biochemical kinase assay was described previously [29].\nThe FLT3 and VEGFR1/2 Kinase-Glo kinase assays were performed as reported by our earlier study [30]."}, "[17]": {"assay": "Pharmacokinetic analysis in rats", "type": "in vivo, Sprague-Dawley rats", "description": "The uses of animals were approved by The Institutional Care and Use Committee of the National Health Research Institutes. Briefly, male Sprague-Dawley rats weighing 300–400 g each were obtained from BioLASCO, Taiwan Co., Ltd., Ilan, Taiwan. One day prior dosing, rats were surgically prepared with a jugular-vein cannula and fasted overnight (∼18–20 hr). Water was available ad libitum. Food was provided at 4 hours after dosing. Single 1.5 mg/kg intravenous dose of BPR1J-340, as a PEG400/water (80/20, v/v) solution, was separately administered to groups of 3 rats each via the jugular-vein cannula. At 0 (prior to dosing), 2, 5, 15 and 30 min. and at 1, 2, 4, 6, 8 and 24 hr after dosing, a blood sample was collected. Plasma was separated from the blood by centrifugation (14,000 g for 15 min at 4°C in a Beckman Model AllegraTM 6R centrifuge) and stored in a freezer (−20°C) until analysis. All plasma samples were analyzed by LC-MS/MS. Plasma concentration data were analyzed with non-compartmental method for pharmacokinetic determination."}},
  "note": "Values joined by “and” are separate entries in the source; they are usually repeats but may differ in a detail not shown here. Identical values can stand only once.",
  "data": [
    {"smiles": "CCc1cc(NC(=O)NCc2ccc(-c3cc(NC(=O)c4ccc(CN5CCN(C)CC5)cc4)[nH]n3)cc2)no1", "note": "[BPR1J-340, N1-(3-4-[([(5-ethyl-3-isoxazolyl)amino]carbonylamino)methyl]phenyl-1H-5-pyrazolyl)-4-[(4-methylpiperazino)methyl]benzamide]", "values": [
      {"measurement": "inhibition at 0.1 µM", "setting": "[1]", "value": 45, "unit": "%"},
      {"measurement": "inhibition at 0.1 µM", "setting": "[2]", "value": 69, "unit": "%"},
      {"measurement": "GI50", "setting": "[3]", "value": 13.2, "unit": "µM"},
      {"measurement": "GI50", "setting": "[4]", "value": 7.03, "unit": "µM"},
      {"measurement": "GI50", "setting": "[5]", "value": 6.57, "unit": "µM"},
      {"measurement": "GI50", "setting": "[6]", "value": 9.33, "unit": "µM"},
      {"measurement": "GI50", "setting": "[7]", "value": 6.37, "unit": "µM"},
      {"measurement": "GI50", "setting": "[8]", "value": 3.73, "unit": "µM"},
      {"measurement": "GI50", "setting": "[9]", "value": 2.52, "unit": "µM"},
      {"measurement": "GI50", "setting": "[10]", "value": 8.34, "unit": "µM"},
      {"measurement": "GI50", "setting": "[11]", "value": 9.74, "unit": "µM"},
      {"measurement": "GI50", "setting": "[12]", "value": 9.96, "unit": "µM"},
      {"measurement": "GI50", "setting": "[13]", "value": 2.61, "unit": "µM"},
      {"measurement": "GI50", "setting": "[14]", "value": "0.77 ± 0.36", "unit": "µM"},
      {"measurement": "GI50", "setting": "[15]", "value": 11.3, "unit": "µM"},
      {"measurement": "IC50", "setting": "[16]", "value": "0.029 ± 0.005", "unit": "µM"},
      {"measurement": "maximum plasma concentration", "setting": "[17]; Rat IV 1.5 mg/kg, at 2 min after dosing, 1.5 mg/kg", "value": "7.9 µM and 4,296 ng/mL"},
      {"measurement": "plasma concentration maintained for 6 hours", "setting": "[17]; Rat IV 1.5 mg/kg, for 6 hours", "value": "exceeded 80 ng/mL"},
      {"measurement": "T1/2", "setting": "[17]; Rat IV, dose 1.5 mg/kg, listed as BRP1J-340, 1.5 mg/kg", "value": "8.8 ± 0.6", "unit": "h"},
      {"measurement": "maximum achievable plasma concentration above the IC50 for FLT3-ITD inhibition", "setting": "[17]; Rat, single 1.5 mg/kg", "value": "more than 272 fold"},
      {"measurement": "concentration at 24 h", "setting": "[17]; male, Sprague-Dawley, plasma, Rat IV 1.5 mg/kg, 24 hour after dosing, read-out: plasma concentration C24 hour", "value": "9.9 ng/mL and 18 nM"},
      {"measurement": "clearance", "setting": "[17]; male, Sprague-Dawley, plasma, Rat IV, dose 1.5 mg/kg", "value": "20.4 ± 5.2", "unit": "mL/min/kg"},
      {"measurement": "AUC(0-t)", "setting": "[17]; male, Sprague-Dawley, plasma, Rat IV, dose 1.5 mg/kg, read-out: AUC(0–24)", "value": "1130 ± 260", "unit": "ng·h/mL"},
      {"measurement": "Vd", "setting": "[17]; male, Sprague-Dawley, plasma, Rat IV, dose 1.5 mg/kg, read-out: Vss", "value": "10.3 ± 2.5", "unit": "L/kg"},
      {"measurement": "half-life", "setting": "[17]; male, Sprague-Dawley, rat, plasma, iv, 1.5 mg/kg, Rat IV", "value": "~8.8", "unit": "h"}
    ]}
  ]
}
